# Measured values taken from patent publication US7384927B2, “Alkylated porphyrins as pesticides acting both in the presence and absence of light” (priority 2003, dated 2008).
# Experiments:
# Format in all cases: in vivo
# [1] = system: Ceratitis capitata flies; assay: Photoinsecticidal action: fly survival after bait and sunlight irradiation; details: 8 μM in bait, 12 h after feeding, survival 1 h after irradiation
# Procedure: (§1) Porphyrins: • a) meso[tri(N-methyl-pyridyl), mono(N-dodecyl-pyridyl)]porphine (abbr.: C12) • b) meso[tri(N-methyl-pyridyl), mono(N-tetradecyl-pyridyl)]porphine (abbr.: C14) • c) meso[tri(N-methyl-pyridyl), mono(N-octadecyl-pyridyl)]porphine (abbr.: C18) Bait: Aqueous solution containing 10% sucrose and 1% autolysed yeast Flies: • a) Ceratitis capitata (fruit fly) age: 1 week; weight: 5-6 mg • b) Bactrocera oleae (olive fly) age: 10 days; weight: 4-4.5 mg • c) Stomoxis calcitrans (stable fly) age: 10 days; weight: 12 mg Irradiation: • a) High pressure halogen lamp, equipped with infrared and UV filters, emission 360-850 nm, operated at intensities in the 760-2,000 μE s^−1m^−2 range • b) Sunlight, mid June at Padua latitude, average intensity of […] μE s^−1m^−2 with minimum and maximum values of 950 and, respectively, 1,380 μE s^−1m^−2
# The survival was evaluated 1 h after the end of irradiation.
# (§2) An appropriate number of flies (50 flies per each experiment) was caged in 115×55×70 mm Plexiglas cages with several holes (ø=0.5 mm) and starved for 36 h. Then, depending on the protocol to be adopted for each specific experiment, the flies were fed with the bait (10% sucrose and 1% autolysed yeast in neutral aqueous solution), which was either porphyrin-free or added with a predetermined concentration of the porphyrin. These flies were then used in the various experimental sessions.
# [2] = system: Ceratitis capitata flies; assay: Insecticidal action in the dark: fly survival after porphyrin bait; details: for mortality of the flies in the dark: C. capitata, even at the largest porphyrin dose (8.1 μM); for Survival (% of control untreated flies): dark, fed 24 h, survival 12 h after change to porphyrin-free bait
# Procedure: For comparison, data obtained with two conventional porphyrins (as those described in WO 97/29637) offered to the insects for 24 h at a 3.0 and 8.1 μmolar concentration in the same bait are also shown. In all cases, the survival was determined 12 hours after changing food supply from a porphyrin-containing to a porphyrin-free bait. […] These flies were then used in the various experimental sessions. […] The number of survivors was evaluated 12 h after switching from administration of a porphyrin-containing bait to a porphyrin-free bait. In none of the experiments was mortality or any apparent toxic effect observed in control flies (flies not fed with porphyrin, see survival at 0 μM porphyrin concentration).
# [3] = system: Ceratitis capitata flies; assay: Photoinsecticidal action: fly survival after bait and visible light irradiation (artificial lamp); details: 8 μM in bait, survival 10 h after irradiation
# Procedure: as §1
# The irradiations were performed for 1 h, then the flies were kept in dim light for monitoring the survival. Control flies were irradiated under identical conditions after feeding with a porphyrin-free bait.
# The irradiations were performed for 1 h at a fluence-rate of 1220 μE s^−1m^−2. The survival was evaluated 10 h after the end of irradiation. […] The porphyrins are abbreviated as following: HP: haematoporphyrin; C1: meso-tetra(N-methyl-pyridyl)porphine.
# The survival was evaluated 10 h after the end of irradiation.
# as §2, with “sessions. […]” for “sessions.”
# [4] = fluence-rate 760 μE s^−1m^−2, irradiated 24 h after feeding (title)
# [5] = fluence-rate 1220 μE s^−1m^−2, irradiated 24 h after feeding (title)
# [6] = fluence-rate 1500 μE s^−1m^−2, irradiated 24 h after feeding (title)
# [7] = fluence-rate 2000 μE s^−1m^−2, irradiated 24 h after feeding (title)
# [8] = time interval feeding-irradiation 0 h, irradiation 1 h at 1220 μE s^−1m^−2
# [9] = time interval feeding-irradiation 12 h, irradiation 1 h at 1220 μE s^−1m^−2
# [10] = time interval feeding-irradiation 24 h, irradiation 1 h at 1220 μE s^−1m^−2
# [11] = time interval feeding-irradiation 48 h, irradiation 1 h at 1220 μE s^−1m^−2
SMILES,Survival (% of control untreated flies) ([1]; sunlight 15 min),Survival (% of control untreated flies) ([1]; sunlight 30 min),Survival (% of control untreated flies) ([1]; sunlight 45 min),Survival (% of control untreated flies) ([1]; sunlight 60 min),mortality of the flies in the dark [2],Survival (% of control untreated flies) ([2]; 3.00 μM in bait),Survival (% of control untreated flies) ([2]; 8.10 μM in bait),"Survival (% of control untreated flies) [3, 4]","Survival (% of control untreated flies) [3, 5]","Survival (% of control untreated flies) [3, 6]","Survival (% of control untreated flies) [3, 7]","Survival (% of control untreated flies) [3, 8]","Survival (% of control untreated flies) [3, 9]","Survival (% of control untreated flies) [3, 10]","Survival (% of control untreated flies) [3, 11]"
"C[n+]1ccc(-c2c3nc(c(-c4cc[n+](C)cc4)c4ccc([nH]4)c(-c4cc[n+](C)cc4)c4nc(c(-c5cc[n+](C)cc5)c5ccc2[nH]5)C=C4)C=C3)cc1 [C1, Meso-tetra (N-methyl-pyridyl) porphine, reference compound]",100 % of control untreated flies,100 % of control untreated flies,93 % of control untreated flies,97 % of control untreated flies,no mortality of the flies was observed,100 % of control untreated flies,100 % of control untreated flies,100 % of control untreated flies,90 % of control untreated flies,81 % of control untreated flies,73 % of control untreated flies,90 % of control untreated flies,94 % of control untreated flies,100 % of control untreated flies,97 % of control untreated flies
"CC1=C(CCC(=O)O)c2cc3[nH]c(cc4nc(cc5[nH]c(cc1n2)c(C)c5C(C)O)C(C)=C4C(C)O)c(C)c3CCC(=O)O (stereo not drawn) [Hp, Haematoporphyrin, reference compound]",75 % of control untreated flies,70 % of control untreated flies,64 % of control untreated flies,40 % of control untreated flies,no mortality of the flies was observed,100 % of control untreated flies,100 % of control untreated flies,81 % of control untreated flies,20 % of control untreated flies,11 % of control untreated flies,8 % of control untreated flies,20 % of control untreated flies,37 % of control untreated flies,58 % of control untreated flies,61 % of control untreated flies
